Several values for one entry are separate records, joined by “and”; a condition that tells them apart may be missing. Identical values can stand only once.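 Step 1: Grow cells in 96-well plates. Step 2: Expose to compound for 48 hours at 5 concentrations. Step 3: Interpolate endpoints linearly; if unreached, use highest concentration. GI50: concentration for 50% inhibition of growth. TGI: concentration producing complete growth inhibition.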
What was measured:
Assay in all cases: growth of human tumour cells (NCI), 48 h
U251 CNS = tested on: U251 CNS
NCI-H460 lung = tested on: NCI-H460 lung
EKVX NSCLC = tested on: EKVX NSCLC
MALME-3M melanoma = tested on: MALME-3M melanoma
UO-31 renal = tested on: UO-31 renal
OVCAR-8 ovarian = tested on: OVCAR-8 ovarian
786-0 renal = tested on: 786-0 renal
CAKI-1 renal = tested on: CAKI-1 renal
M14 melanoma = tested on: M14 melanoma
HT29 colon = tested on: HT29 colon

Structure (SMILES)	GI50 (U251 CNS)	TGI (U251 CNS)	GI50 (NCI-H460 lung)	TGI (NCI-H460 lung)	GI50 (EKVX NSCLC)	TGI (EKVX NSCLC)	GI50 (MALME-3M melanoma)	TGI (MALME-3M melanoma)	GI50 (UO-31 renal)	TGI (UO-31 renal)	GI50 (OVCAR-8 ovarian)	TGI (OVCAR-8 ovarian)	GI50 (786-0 renal)	TGI (786-0 renal)	GI50 (CAKI-1 renal)	TGI (CAKI-1 renal)	GI50 (M14 melanoma)	TGI (M14 melanoma)	GI50 (HT29 colon)	TGI (HT29 colon)
Cc1ccc(NC(=O)c2ccnc(N3CCCC3)c2)cc1-c1ccc(C(=O)NCC2CC2)cc1	> 25 µM	> 25 µM	> 25 µM	> 25 µM	> 25 µM	> 25 µM	> 25 µM	> 25 µM	> 25 µM	> 25 µM	> 25 µM	> 25 µM	> 25 µM	> 25 µM	> 25 µM	> 25 µM	> 25 µM	> 25 µM	> 25 µM	> 25 µM
Cc1ccc(S(=O)(=O)N/N=C(\C(=O)Nc2cccc([N+](=O)[O-])c2)c2nc3ccc([N+](=O)[O-])cc3[nH]c2=O)cc1		> 100 µM		> 100 µM		> 100 µM		> 100 µM		> 100 µM		> 100 µM		> 100 µM		> 100 µM		> 100 µM		> 100 µM
O=C(NCC#CCO)C(F)(F)F		> 100 µM		> 100 µM		> 100 µM		> 100 µM		> 100 µM		> 100 µM		> 100 µM		> 100 µM		> 100 µM		> 100 µM
CC/C(=C(\CC)c1ccc(OCCN(CC)CC)cc1)c1ccc(OCCN(CC)CC)cc1	1.87 µM	8.99 µM	3.86 µM	15.3 µM	4.02 µM	20.4 µM	1.81 µM	5.87 µM	0.996 µM	11.3 µM	5.85 µM	19.3 µM	1.6 µM	3.66 µM	3.17 µM	15.7 µM	0.771 µM	2.27 µM	0.0759 µM	3.78 µM
O=C1/C(=C/c2ccccc2)CCCC/C1=C\c1ccccc1		> 100 µM		> 100 µM		> 100 µM		> 100 µM		> 100 µM		> 100 µM		> 100 µM		> 100 µM		> 100 µM		32 µM
COc1cc(-c2nc3ccccc3s2)ccc1OCc1nc2n(n1)S(=O)(=O)c1ccccc1N2C	> 100 µM	> 100 µM	> 100 µM	> 100 µM	> 100 µM	> 100 µM	> 100 µM	> 100 µM	> 100 µM	> 100 µM	> 100 µM	> 100 µM	> 100 µM	> 100 µM	> 100 µM	> 100 µM	> 100 µM	> 100 µM	> 100 µM	> 100 µM
Nc1ccc(C(=O)NN2C(=O)C(Cl)C2c2ccccc2O)cc1 (centres undefined)		> 100 µM		> 100 µM		> 100 µM		> 100 µM		75.2 µM		> 100 µM		> 100 µM		> 100 µM		> 100 µM		> 100 µM
O=C(O)CC1(C(=O)O)CCCCC1		> 100 µM		> 100 µM		> 100 µM		> 100 µM		> 100 µM		> 100 µM		> 100 µM		> 100 µM		> 100 µM		> 100 µM
CCCCCCCCCCCC(=O)OCC1OC(n2cc(F)c(=O)[nH]c2=O)C(N)C(O)C1O (centres undefined)		> 100 µM		> 100 µM		> 100 µM		> 100 µM		> 100 µM		> 100 µM		> 100 µM		> 100 µM		> 100 µM		> 100 µM
COC(=O)C1=CC2OC1(C)C1(CC1)C2=O (centres undefined)		> 100 µM		48.4 µM		29 µM		27.8 µM		50 µM		31.3 µM		31.8 µM		33.5 µM		29.1 µM		25.5 µM
CN(CCO)c1nc2c(c(=O)[nH]1)CNCC2		> 100 µM		> 100 µM		> 100 µM		> 100 µM		> 100 µM		> 100 µM		> 100 µM		> 100 µM		> 100 µM		> 100 µM
Cn1c2cccc3nnc4cccc(c4c32)n1C		> 100 µM		> 100 µM		> 100 µM		> 100 µM		> 100 µM		> 100 µM		> 100 µM		> 100 µM		> 100 µM		> 100 µM
CO[C@H](C(=O)N[C@@H](CCCCNC(=O)OCc1ccccc1)C(=O)OC(C)(C)C)[C@@H]1Cc2cc3cc(OC4CC(OC5CC(O)C(O)C(C)O5)C(O)C(C)O4)c(C)c(O)c3c(O)c2C(=O)[C@H]1OC1CC(OC2CC(OC3CC(C)(O)C(O)C(C)O3)C(O)C(C)O2)C(O)C(C)O1 (some centres undefined)	0.529 µM	1.94 µM	0.364 µM	1.49 µM	1.17 µM	3.1 µM	0.516 µM	1.86 µM	1.57 µM	8.18 µM	0.697 µM	> 10 µM	0.563 µM	1.88 µM	1.04 µM	3.42 µM	0.879 µM	2.48 µM	0.508 µM	> 10 µM
COC(=O)/C(=C/CC(N=C(c1ccccc1)c1ccccc1)C(=O)OC)N=C(c1ccccc1)c1ccccc1 (centres undefined)		> 100 µM		> 100 µM		> 100 µM		> 100 µM		> 100 µM		> 100 µM		> 100 µM		> 100 µM		> 100 µM		> 100 µM
COc1ccccc1NC(=O)C1=C(C)NC(C)=C(C(=O)Nc2ccccc2OC)C1c1ccccc1OC		> 100 µM		> 100 µM		> 100 µM		> 100 µM		> 100 µM		> 100 µM		> 100 µM		> 100 µM		> 100 µM		> 100 µM
Cc1ccc(C2=NO[C@@H]3C(=O)N(c4ccc(Cc5ccc(N6C(=O)[C@H]7C(c8ccc(C)cc8)=NO[C@H]7C6=O)cc5)cc4)C(=O)[C@H]23)cc1		> 100 µM		> 100 µM		> 100 µM		> 100 µM		> 100 µM		> 100 µM		> 100 µM		> 100 µM		> 100 µM		> 100 µM
Cn1cnc2c(NCc3ccccc3)nc(NCCO)nc21	133 µM	> 500 µM	77.8 µM	441 µM	57 µM	170 µM		241 µM	93.6 µM	> 96.2 µM and 420 µM	90.5 µM	391 µM	105 µM	> 435 µM	63.6 µM	> 90.6 µM and 265 µM	51 µM	120 µM	83.6 µM	336 µM
CCOC(=O)C1C(c2ccc([N+](=O)[O-])cc2)NC(c2ccc([N+](=O)[O-])cc2)C(C(=O)OC)S1(=O)=O (centres undefined)		> 100 µM		> 100 µM		> 100 µM		> 100 µM		> 100 µM		> 100 µM		> 100 µM		> 100 µM		> 100 µM		> 100 µM
O=C(Nc1ccc(Br)c(Cl)c1)c1cc(F)ccc1O	0.768 µM	> 50 µM	0.675 µM	> 14.8 µM	0.77 µM	10 µM	0.263 µM	1.99 µM	0.153 µM	1.89 µM	1.21 µM	> 30.5 µM	1.06 µM	5.73 µM	0.826 µM	3.46 µM	0.585 µM	3.1 µM	1.71 µM	8.35 µM
Cc1cc(C)n(-c2c(O)ccc(O)c2-n2nc(C)cc2C)n1		> 100 µM		> 100 µM		> 100 µM		> 100 µM		> 100 µM		> 100 µM		> 100 µM		> 100 µM		> 100 µM		> 100 µM
CCC[CH2][Sn]([CH2]CCC)([S]C1=NCCS1)[S]C1=NCCS1	0.567 µM	1.86 µM	1.52 µM	3.26 µM	1.34 µM	2.71 µM	0.157 µM	0.555 µM	1.13 µM	2.51 µM	0.397 µM	1.6 µM	0.22 µM	0.663 µM	0.0928 µM	0.51 µM	0.315 µM	1.24 µM	1.07 µM	2.58 µM
C[C@]12CCC(=O)C=C1CC[C@@H]1[C@@H]2CC[C@]2(C)C(=O)/C(=C/c3cccc(OCCN4CCOCC4)c3)C[C@@H]12	8.5 µM	24.9 µM	7.11 µM	30.1 µM	5.57 µM	42.3 µM	14.7 µM	36 µM	12.1 µM	30 µM	6.28 µM	> 100 µM	12.8 µM	> 100 µM	11.9 µM	48.3 µM	8.9 µM	21.5 µM	2.87 µM	16.2 µM
COC(=O)C#Cc1ccc([N+](=O)[O-])cc1		3.86 µM		38.7 µM		3.48 µM		4.41 µM		2.85 µM		7.25 µM		7.04 µM		2.74 µM		4.96 µM		3.23 µM
